Measured values published in paper PMC7110988 (Chemistry & Biology, 2005).
“Also recorded” adds a separate entry of the source.

How the values were obtained:
[1] = system: SCV (strain GZ50) in FRhK-4 cells; assay: microbe, parasite or virus in culture; type: cell-based, SARS coronavirus
[2] = biological target: SCV helicase (nsp13) unstimulated ATPase activity (Severe acute respiratory syndrome coronavirus, UniProt P0C6X7); type: biochemical, SARS coronavirus
[3] = biological target: SCV helicase helicase activity (Severe acute respiratory syndrome coronavirus, UniProt P0C6X7); type: biochemical, SARS coronavirus
E. coli DnaB helicase = E. coli DnaB helicase (Escherichia coli, UniProt P0ACB0); type: biochemical
Chain of E. coli DnaB helicase (P0ACB0 whole entry): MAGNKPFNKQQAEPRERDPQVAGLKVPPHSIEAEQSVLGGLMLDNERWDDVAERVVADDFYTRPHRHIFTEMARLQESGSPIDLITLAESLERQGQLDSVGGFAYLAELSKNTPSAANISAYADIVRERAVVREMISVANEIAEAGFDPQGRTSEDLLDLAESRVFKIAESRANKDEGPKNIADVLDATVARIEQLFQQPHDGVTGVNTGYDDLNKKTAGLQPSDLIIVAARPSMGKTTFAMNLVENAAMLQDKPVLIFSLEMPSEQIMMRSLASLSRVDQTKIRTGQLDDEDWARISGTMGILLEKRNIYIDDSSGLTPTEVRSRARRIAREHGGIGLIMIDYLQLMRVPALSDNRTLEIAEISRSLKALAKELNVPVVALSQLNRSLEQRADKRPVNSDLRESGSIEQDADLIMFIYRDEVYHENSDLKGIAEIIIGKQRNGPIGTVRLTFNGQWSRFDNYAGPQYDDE

[4] = system: SCV (strain GZ50) in FRhK-4 cells; type: cell-based, SARS coronavirus; conditions: 50 μM
[5] = biological target: SCV helicase (nsp13) ATPase activity (Severe acute respiratory syndrome coronavirus, UniProt P0C6X7); assay: biochemical; parameters: species or system SARS coronavirus
SARS coronavirus (SCV) = conditions: cited from earlier work

## Cc1ncc(CO)c(C23OC4(O)CC(O)(CC(O)(C4)O2)O3)c1O [bananin, 1-[3-hydroxy-5-(hydroxymethyl)-2-methyl-4-pyridinyl]-2,8,9-trioxaadamantane-3,5,7-triol]
[1]
  Reduction of viral titre: ~50%
  Viral titre: almost zero
  Viral titre, % of untreated control infection: below 10%
[1]; Severe acute respiratory syndrome coronavirus, FRhK-4, read-out: EC50 (antiviral, viral titre)
  EC50: < 10 µM
[2]
  Inhibition of unstimulated basal ATPase activity: not an effective inhibitor; also recorded: Far weaker inhibition
[2]; 100 µM
  Inhibition of unstimulated basal ATPase activity at 100 µM: slight inhibition
[3]
  Inhibition of helicase activity (in words): effective inhibitors; also recorded: the best inhibitors of DNA-unwinding
FRhK-4 cells
  Specificity index (CC50/EC50): over 39
E. coli DnaB helicase
  Inhibition of DnaB helicase: did not inhibit
[4]
  Cytopathic effects relative to control infection: distinctly reduced
[5]
  IC50: 2.3 µM
  Mechanism of inhibition of ATPase activity: noncompetitive inhibitor

## COc1cc(CC(C)c2nc(C)c(O)c(C34OC5(O)CC(O)(CC(O)(C5)O3)O4)c2CO)ccc1O (racemic) [eubananin, 1-[6-[(2RS)-1-(4-hydroxy-3-methoxyphenyl)-2-propyl]-3-hydroxy-5-(hydroxymethyl)-2-methyl-4-pyridinyl]-2,8,9-trioxaadamantane-3,5,7-triol]
[3]
  Inhibition of helicase activity (in words): effective inhibitors; also recorded: the best inhibitors of DNA-unwinding
[5]
  IC50: 2.8 µM

## COc1cc(C23OC4(O)CC(O)(CC(O)(C4)O2)O3)ccc1O [vanillinbananin, 1-(4-hydroxy-3-methoxyphenyl)-2,8,9-trioxaadamantane-3,5,7-triol]
[3]
  Inhibition of helicase activity (in words): effective inhibitors; also recorded: the best inhibitors of DNA-unwinding
[5]
  IC50: 0.68 µM

## NC(=O)c1ncn([C@@H]2O[C@H](CO)[C@@H](O)[C@H]2O)n1 [ribavirin]
SARS coronavirus (SCV)
  Activity in cell culture: lack of activity
